Assay results published in patent publication US10376499B2, “Combination therapy for treatment of resistant bacterial infections” (priority 2014, dated 2019).

Columns and labels:
[1] = test system: A. baumannii; experiment: MIC90 of common antibiotics+compound 1, 196 contemporary clinical isolates of A. baumannii (Example 4); conditions: B-lactam + Cmpd 1 (4 μg/mL)
[2] = test system: Citrobacter spp; experiment: MIC, recent Enterobacteriaceae clinical isolates: Citrobacter spp (Examples 7, 11); assay type: cell-based; conditions: Citrobacter spp, N 7
[3] = test system: A. baumannii; experiment: MIC, 20 diverse recent strains of A. baumannii (Example 10); assay type: cell-based, Acinetobacter baumannii; conditions: N 20 A. baumannii strains
[4] = test system: Escherichia coli; experiment: MIC, recent Enterobacteriaceae clinical isolates: Escherichia coli (Examples 7, 11); conditions: Escherichia coli
[5] = test system: Enterobacteriaceae; experiment: organism not typed; assay type: cell-based
[6] = test system: Enterobacter cloacae; experiment: MIC, recent Enterobacteriaceae clinical isolates: Enterobacter cloacae (Examples 7, 11); assay type: cell-based
[7] = test system: Klebsiella pneumoniae; experiment: MIC, recent Enterobacteriaceae clinical isolates: Klebsiella pneumoniae (Examples 7, 11)
[8] = test system: A. baumannii; experiment: MIC by broth microdilution (CLSI), panel of 60 A. baumannii clinical isolates (Example 1)

C[C@H]1[C@H](NC(=O)/C(=N\OC(C)(C)C(=O)O)c2csc(N)n2)C(=O)N1S(=O)(=O)O [Aztreonam]
>64 µg/mL: MIC90 [1]

CO/N=C(\C(=O)N[C@@H]1C(=O)N2C(C(=O)[O-])=C(C[N+]3(C)CCCC3)CS[C@H]12)c1csc(N)n1 [Cefepime]
32 µg/mL: MIC90 [1]

CC(C)(O/N=C(\C(=O)N[C@@H]1C(=O)N2C(C(=O)[O-])=C(C[n+]3ccccc3)CS[C@H]12)c1csc(N)n1)C(=O)O [Ceftazidime]
32 µg/mL: MIC90 [1]

C[C@@H](O)[C@H]1C(=O)N2C(C(=O)O)=C(SCCNC=N)C[C@H]12 [Imipenem, (5R,6S)-3-[[2-(formimidoylamino)ethyl]thio]-6-[(R)-1-hydroxyethyl]-7-oxo-1-azabicyclo[3.2.0]hept-2-ene-2-carboxylic acid]
4 µg/mL: MIC90 ([2]; read-out: MIC90) | MIC90 [5]
16 µg/mL: MIC90 [1]
> 64 µg/mL: MIC90 [3] | MIC Max [3]
0.25 µg/mL: MIC Min [3] | MIC50 [4] | MIC50 [7]
8 µg/mL: MIC90 [7]
0.5 µg/mL: MIC50 ([2]; read-out: MIC50) | MIC90 [4] | MIC50 [5] | MIC50 ([6]; N 10, read-out: MIC50)
64 µg/mL: MIC50 [3]
1 µg/mL: MIC90 ([6]; N 10)

CCN1CCN(C(=O)N[C@@H](C(=O)N[C@@H]2C(=O)N3[C@@H]2SC(C)(C)[C@@H]3C(=O)O)c2ccccc2)C(=O)C1=O [Piperacillin]
32 µg/mL: MIC90 [1]

gentamycin
16 µg/mL: MIC ([8]; strain ARC2777, OXA-172, TEM-1) | MIC ([8]; strain ARC2788, OXA-65, TEM-1) | MIC ([8]; strain ARC3490, TEM-1+, PSE-2, OXA-69)
0.25 µg/mL: MIC ([8]; strain ARC3494, OXA-65) | MIC ([8]; strain ARC3657, OXA-130) | MIC ([8]; strain ARC5081, OXA-94, OXA-23)
2 µg/mL: MIC ([8]; strain ARC2598, OXA*, TEM-1, OXA-113) | MIC ([8]; strain ARC3491 (A. baumannii/calcoaceticus complex), OXA-215)
1 µg/mL: MIC ([8]; strain ARC2058, OXA-95) | MIC ([8]; strain ARC3485, OXA-82)
8 µg/mL: MIC ([8]; strain ARC593, OXA-98) | MIC ([8]; strain ARC2674, SHV-5, OXA-113) | MIC ([8]; strain ARC3487, OXA-20, OXA-58, OXA-66) | MIC ([8]; strain ARC5076, TEM-1, OXA-23, OXA-66) | MIC ([8]; strain ARC5079, OXA-72, OXA-65) | MIC ([8]; strain ARC5088, OXA-20, OXA-58, OXA-66)
>32 µg/mL: MIC ([8]; strain ARC2461, OXA-66, TEM-1) | MIC ([8]; strain ARC2462, TEM-1, OXA-66) | MIC ([8]; strain ARC2635, OXA-65, OXA-40, TEM-1) | MIC ([8]; strain ARC2636, OXA-65, OXA-40, TEM-1) | MIC ([8]; strain ARC2675, SHV-5, OXA-113) | MIC ([8]; strain ARC2681, OXA-40, TEM-1, OXA-132) | MIC ([8]; strain ARC2682, SHV-5, OXA-113) | MIC ([8]; strain ARC2778, OXA-40, TEM-1, OXA-65) | MIC ([8]; strain ARC2779 (A. baumannii/calcoaceticus complex), OXA-2, VIM-2) | MIC ([8]; strain ARC2780 (A. baumannii/calcoaceticus complex), OXA*, OXA-2, IMP-1) | MIC ([8]; strain ARC2782, OXA-66, OXA-23, TEM-1, PER-1) | MIC ([8]; strain ARC3484, TEM-1, OXA-23, OXA-64) | MIC ([8]; strain ARC3486, OXA-72, OXA-66, TEM-1) | MIC ([8]; strain ARC3488, OXA*, OXA-68) | MIC ([8]; strain ARC3489, OXA*, OXA-68) | MIC ([8]; strain ARC3492, OXA-40, OXA-132, TEM-1) | MIC ([8]; strain ARC3493, OXA-40, OXA-66) | MIC ([8]; strain ARC3495, OXA-40, OXA-109) | MIC ([8]; strain ARC3513, TEM-1, OXA-23, OXA-65) | MIC ([8]; strain ARC3658, OXA-66, PER-1, TEM-1, OXA-23) | MIC ([8]; strain ARC3659, OXA-23, OXA*) | MIC ([8]; strain ARC3882, OXA-23, NDM-1, OXA-10*) | MIC ([8]; strain ARC5075, SHV-5, OXA-113) | MIC ([8]; strain ARC5077, OXA*, OXA-72) | MIC ([8]; strain ARC5080, OXA-71, OXA-40) | MIC ([8]; strain ARC5083, OXA-66, OXA-23) | MIC ([8]; strain ARC5084, IMP-4(B), OXA-58, OXA-65) | MIC ([8]; strain ARC5085, OXA*, TEM-1) | MIC ([8]; strain ARC5086, OXA*, TEM-1, OXA-72, OXA-66) | MIC ([8]; strain ARC5087, OXA-66, OXA-23) | MIC ([8]; strain ARC5089, PER*, TEM-1, OXA-23, OXA-66) | MIC ([8]; strain ARC5091, OXA-82, OXA-23) | MIC ([8]; strain ARC5092, OXA-23, OXA-64)
0.125 µg/mL: MIC ([8]; strain ARC5074, GES*, TEM-1, OXA-51)
0.5 µg/mL: MIC ([8]; strain ARC5073, OXA-23, TEM-1, OXA-64, PER-1) | MIC ([8]; strain ARC5082, OXA-66, OXA-23)
4 µg/mL: MIC ([8]; strain ARC3515, OXA-64, OXA-58)
